Assay results: ChEMBL document CHEMBL6182842, “Progress in the development of macrophage migration inhibitory factor small-molecule inhibitors” (Eur J Med Chem, 2025)
pIC50, pKi: −log10 of the molar value.

How the values were obtained:
[1] = target: T1, Macrophage migration inhibitory factor (Homo sapiens, UniProt P14174); experiment: Inhibition of human recombinant MIF tautomerase activity
T1 sequence (P14174 whole entry): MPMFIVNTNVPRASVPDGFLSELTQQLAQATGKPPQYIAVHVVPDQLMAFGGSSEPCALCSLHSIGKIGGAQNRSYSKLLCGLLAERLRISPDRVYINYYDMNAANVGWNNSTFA

[2] = target: T1, Macrophage migration inhibitory factor; experiment: Inhibition of human full length MIF extracted from Escherichia coli BL21 (DE3) by UV absorbance based analysis
[3] = target: T1, Macrophage migration inhibitory factor; experiment: Inhibition of MIF (unknown origin)
[4] = target: T1, Macrophage migration inhibitory factor; experiment: Inhibition of human recombinant MIF incubated for 30 mins by microplate reader assay
[5] = target: T2, D-dopachrome decarboxylase (Homo sapiens, UniProt P30046); experiment: Inhibition of wild type human DDT tautomerase activity at 100 uM relative to control
Homo sapiens = species: Homo sapiens; experiment: Selectivity ratio of Ki for wild type human DDT to Ki for wild type human MIF
[6] = target: T1, Macrophage migration inhibitory factor; experiment: Binding affinity to wild type human MIF extracted from Escherichia coli BL 21 (DE3) assessed as inhibition constant
[7] = target: T3, Macrophage migration inhibitory factor (Homo sapiens) (UniProt P14174); experiment: Potency index, ratio of ISO-1 IC50 to test compound IC50 for inhibition of human recombinant MIF
T3 sequence (whole entry): T1 sequence (P14174 whole entry)

[8] = target: T1, Macrophage migration inhibitory factor; experiment: Inhibition of human recombinant MIF extracted from Escherichia coli BL21 (DE3)
[9] = target: T1, Macrophage migration inhibitory factor; experiment: Binding affinity to human recombinant MIF extracted from Escherichia coli BL21 (DE3) assessed as inhibition constant
[10] = target: T2, D-dopachrome decarboxylase; experiment: Binding affinity to human DDT extracted from Escherichia coli assessed as inhibition constant
[11] = target: T2, D-dopachrome decarboxylase; experiment: Inhibition of human DDT extracted from Escherichia coli

T2 sequence (P30046 whole entry): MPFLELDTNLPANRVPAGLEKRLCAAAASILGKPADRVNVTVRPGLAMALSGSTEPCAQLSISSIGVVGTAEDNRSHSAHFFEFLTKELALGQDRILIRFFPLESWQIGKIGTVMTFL

In the case of `O=C1/C(=C/c2ccncc2)CCc2ccccc21`, the pIC50 [1] was 4.68.
`COc1ccccc1/C=C1\COc2ccccc2C1=O` gave a pIC50 [1] of 5.37.
For `Cc1cc(C(c2ccccn2)N2CCOCC2)c(NC(=O)c2ccco2)s1` (centres undefined), the pIC50 [2] was 5.19.
Compound `COC(=O)c1ccc(O)c2nc3c(C=O)c(O)cc(O)c3nc12` [LOMOFUNGIN] has a pIC50 [3] of 6.33.
`COc1cc(/C=C2\CCc3cc(O)ccc3C2=O)ccc1O` was tested, and the pIC50 [1] was 5.37.
In the case of `Cc1c(C(=O)c2ccc(Cl)cc2)oc2cc(N)ccc12`, the pIC50 [4] was 4.85.
For `O=C(O)c1ccccn1`, the inhibition [5] was over 75%.
For `c1ccc(-c2ccncc2)cc1`, the inhibition [5] was over 100%.
`O=C1/C(=C/c2cccnc2)CCc2ccccc21` was tested, and the pIC50 [1] was 4.69.
`O=C1/C(=C/c2ccccc2)CCc2ccccc21` gave a pIC50 [1] of 3.90.
Compound `O=C(O)c1ccc(C(=O)O)nc1` [PYRIDINE-2,5-DICARBOXYLIC ACID] has a Ratio Ki (Homo sapiens) of 79, an inhibition [5] of under 25% and a pKi [6] of 4.76.
`O=c1oc2ccc(F)cc2cc1-c1nc(-c2cccs2)no1` was tested, and the pIC50 [4] was 5.12.
Work on `CC(=O)NS(=O)(=O)c1ccc(NC(=O)CC(C)(C)C)cc1` yielded a pIC50 [4] of 5.91.
`C[C@@H]1O[C@@H](O[C@H]2[C@H](Oc3cc(O)c4c(c3)O[C@@H](c3ccc(O)cc3)CC4=O)O[C@H](CO)[C@@H](O)[C@@H]2O)[C@H](O)[C@H](O)[C@H]1O` gave a Ratio IC50 [7] of 13.3, a pIC50 [8] of 4.29 and a pKi [9] of 4.36.
With `O=C1/C(=C/c2ccc3cc[nH]c3c2)CCc2ccccc21` the pIC50 [1] was 4.23.
Work on `O=C(CC1(O)C(=O)N(Cc2ccccc2Cl)c2ccccc21)C1Cc2ccccc2OC1=O` (centres undefined) yielded a pIC50 [4] of 5.12.
`Cc1ccc(/C=C2\CCc3ccccc3C2=O)cc1` was tested, and the pIC50 [1] was 4.78.
Work on `O=c1c(O)c(-c2ccc(O)cc2)oc2cc(O)cc(O)c12` [KAEMPFEROL] yielded a Ratio IC50 [7] of 17.2 and a pIC50 [8] of 3.72.
Compound `O=C(O)c1cccc(-c2cc(C(=O)O)ncc2C(=O)O)c1` has a pKi [10] of 4.48.
`O=c1c(O)c(-c2ccc(O)cc2O)oc2cc(O)cc(O)c12` [MORIN] showed a Ratio IC50 [7] of 6.3, a pIC50 [8] of 4.96 and a pKi [9] of 5.05.
`O=c1c(-c2c(O)cc(O)c3c(=O)cc(-c4ccc(O)cc4)oc23)c(-c2ccc(O)cc2)oc2cc(O)cc(O)c12` was tested, and the pIC50 [8] was 4.88 and the pKi [9] was 5.00.
`COc1ccc(C(=O)Nc2nnc(-c3ccco3)o2)c(OC)c1` showed a pIC50 [2] of 5.16.
Compound `CCC(CC)c1nnc(NC(=O)Oc2ccccc2)s1` has a pIC50 [4] of 4.92.
With `Cn1cccc1/C=C1\CCc2ccccc2C1=O` the pIC50 [1] was 4.62.
Compound `O=C1/C(=C/c2ccco2)CCc2ccccc21` has a pIC50 [1] of 4.24.
`Cc1cc(-c2ccccc2)ncn1` showed a pIC50 [11] of under 3.30.
`O=C(O)c1ccc(C(=O)O)cc1` gave an inhibition [5] of over 75%.
Compound `O=C1/C(=C/c2ccccc2)CCCc2ccccc21` has a pIC50 [1] of 4.08.
Work on `O=C(O)c1cccnc1` yielded an inhibition [5] of over 100%.
Work on `O=C(CSc1cc(-c2ccccc2)ncn1)c1ccc(O)cc1O` yielded a pIC50 [4] of 5.02.
`Nc1ccccc1NC(=O)c1ccc(NC(=O)Cc2ccc(N3Cc4ccc(O)cc4OC3=O)cc2)cc1` gave a pIC50 [3] of 6.09.
